Results taken from patent publication US20250107999A1, “INJECTABLE FORMULATION CONTAINING ISOXAZOLINE DERIVATIVE” (LG CHEM, LTD., priority 2022, published 2025).

Assays:
[1] = Confirmation of API solubility according to solvent pH (24 hours, HPLC); assay type: physicochemical
[2] = API stability in solution (solvent of Example 23, HPLC); assay type: physicochemical; conditions: 10 mg/ml API
Protocol: Therefore, in order to measure the content of the active form in the solution after preparing the injection, 10 mg/ml of API was dissolved using the solvent of Example 23, and the concentration and purity of the active API (Compound of Formula 2), which changed over time, were measured using HPLC until 60 minutes after dissolution.

caspase = test: Caspase inhibitory activity; assay type: biochemical
[3] = Change in content of active compound of Formula 2 over time according to solvent pH (FIG. 1); assay type: physicochemical
Protocol: In addition, after dissolving the API in solvents, the change in the content of the active compound of Formula 2 was measured over time.

Row | SMILES | solubility ([1]; acidic solvents with a pH of 4 or less) | solubility ([1]; basic solvents with a pH of 7.5 or more) | solubility ([1]; weakly acidic solvents with a pH of 6 or more) | Peak Area Active ([2]; 30 min after mixing) | Peak Area Inactive ([2]; 30 min after mixing) [%] | Peak Area Active ([2]; 60 min after mixing) [%] | Peak Area Inactive ([2]; 60 min after mixing) [%] | caspase inhibitory activity (caspase) | conversion of compound of Formula 2 into compound of Formula 3 ([3]; acidic solvent) | conversion of compound of Formula 2 into compound of Formula 3 ([3]; basic solvent with a neutral pH or higher)
1 | CC(C)[C@@]1(C(=O)NC2CC(=O)OC2(O)CF)CC(c2nccc3ccccc23)=NO1 (stereo in doubt) [compound of Formula 1, (R)-N-((2S,3S)-2-(fluoromethyl)-2-hydroxy-5-oxotetrahydrofuran-3-yl)-5-isopropyl-3-(isoquinolin-1-yl)-4,5-dihydroisoxazol-5-carboxamide] | hardly soluble | well soluble | began to dissolve | about 95.5% | 4.33 | 94.18 | 5.59 |  |  | 
2 | CC(C)[C@@]1(C(=O)N[C@@H](CC(=O)O)C(=O)CF)CC(c2nccc3ccccc23)=NO1 [compound of Formula 2] |  |  |  |  |  |  |  | active form |  | 
3 | CC(C)[C@@]1(C(=O)N[C@H](CC(=O)O)C(=O)CF)CC(c2nccc3ccccc23)=NO1 [compound of Formula 3] |  |  |  |  |  |  |  | does not show caspase inhibitory activity | hardly produced | rapidly produced
